Reference: ChEMBL document CHEMBL1828625, “4-benzimidazolyl-3-phenylbutanoic acids as novel PIF-pocket-targeting allosteric inhibitors of protein kinase PKCζ” (J Med Chem, 2011)
Values belong to the compound of their own block, whether it stands above or below them. The source made the active and inactive calls. No cut-off for these calls is given here.

Assays:
[1] = molecular target: T1, Protein kinase C zeta type (Homo sapiens, UniProt Q05513); assay: Inhibition of PKCzeta in human U937 cells assessed as inhibition of TNF-alpha-induced NF-kB activation by luciferase reporter gene assay; assay type: cell-based, U-937
T1 sequence (Q05513 whole entry): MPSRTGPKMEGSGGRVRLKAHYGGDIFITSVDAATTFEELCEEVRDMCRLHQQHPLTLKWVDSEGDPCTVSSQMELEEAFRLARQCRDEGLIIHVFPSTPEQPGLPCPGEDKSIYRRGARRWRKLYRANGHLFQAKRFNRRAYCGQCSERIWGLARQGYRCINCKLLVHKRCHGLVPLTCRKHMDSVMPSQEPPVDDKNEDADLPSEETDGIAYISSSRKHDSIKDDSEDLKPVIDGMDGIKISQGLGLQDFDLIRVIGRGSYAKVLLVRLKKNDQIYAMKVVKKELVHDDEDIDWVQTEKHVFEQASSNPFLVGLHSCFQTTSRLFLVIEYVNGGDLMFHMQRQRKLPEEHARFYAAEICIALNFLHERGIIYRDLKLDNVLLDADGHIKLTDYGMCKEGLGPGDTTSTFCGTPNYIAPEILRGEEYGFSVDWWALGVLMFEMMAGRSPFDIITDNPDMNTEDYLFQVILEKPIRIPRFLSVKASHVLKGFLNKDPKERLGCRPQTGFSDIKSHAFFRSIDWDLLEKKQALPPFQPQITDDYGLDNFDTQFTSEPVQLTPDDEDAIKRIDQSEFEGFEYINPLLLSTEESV

[2] = molecular target: T1, Protein kinase C zeta type; assay: Inhibition of human PKCzeta assessed as [gamma32P]ATP utilization using myelin basic protein as substrate
[3] = molecular target: T2, Serine/threonine-protein kinase Sgk1 (Homo sapiens) (UniProt O00141); assay: Inhibition of SGK at 50 uM
T2 sequence (whole entry): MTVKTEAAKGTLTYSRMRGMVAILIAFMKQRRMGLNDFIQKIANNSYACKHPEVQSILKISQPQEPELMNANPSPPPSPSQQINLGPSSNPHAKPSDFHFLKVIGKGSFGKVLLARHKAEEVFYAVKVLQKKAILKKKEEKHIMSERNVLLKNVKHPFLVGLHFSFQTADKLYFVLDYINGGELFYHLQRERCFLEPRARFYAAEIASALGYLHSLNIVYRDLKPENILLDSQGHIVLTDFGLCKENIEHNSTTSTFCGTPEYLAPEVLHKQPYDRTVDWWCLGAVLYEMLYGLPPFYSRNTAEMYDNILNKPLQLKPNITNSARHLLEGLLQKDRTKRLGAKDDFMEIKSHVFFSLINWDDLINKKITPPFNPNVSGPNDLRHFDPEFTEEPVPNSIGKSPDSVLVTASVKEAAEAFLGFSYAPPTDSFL

[4] = molecular target: RAC-alpha serine/threonine-protein kinase (Homo sapiens) (UniProt P31749); assay: Inhibition of PKB-alpha at 50 uM
[5] = molecular target: T3, Protein kinase C iota type (Homo sapiens) (UniProt P41743); assay: Inhibition of PKCiota at 200 uM
T3 sequence (whole entry): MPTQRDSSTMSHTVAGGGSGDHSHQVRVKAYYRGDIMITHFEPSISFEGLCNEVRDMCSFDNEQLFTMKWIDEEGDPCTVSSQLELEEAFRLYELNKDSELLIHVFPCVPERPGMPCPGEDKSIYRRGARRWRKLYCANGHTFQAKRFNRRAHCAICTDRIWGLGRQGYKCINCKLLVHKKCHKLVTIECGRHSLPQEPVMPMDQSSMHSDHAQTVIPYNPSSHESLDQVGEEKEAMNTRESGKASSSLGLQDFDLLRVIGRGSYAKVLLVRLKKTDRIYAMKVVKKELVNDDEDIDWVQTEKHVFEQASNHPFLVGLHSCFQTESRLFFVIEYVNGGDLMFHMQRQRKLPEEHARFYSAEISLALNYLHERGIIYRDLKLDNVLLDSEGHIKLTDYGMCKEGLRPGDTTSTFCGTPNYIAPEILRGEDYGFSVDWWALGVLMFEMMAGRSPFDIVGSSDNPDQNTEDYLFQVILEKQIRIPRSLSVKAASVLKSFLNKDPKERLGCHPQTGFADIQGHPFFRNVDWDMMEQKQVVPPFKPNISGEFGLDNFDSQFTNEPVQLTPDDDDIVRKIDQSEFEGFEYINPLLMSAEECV

[6] = molecular target: T3, Protein kinase C iota type (Homo sapiens); assay: Inhibition of PKCiota at 50 uM
[7] = molecular target: Serine/threonine-protein kinase N2 (Homo sapiens) (UniProt Q16513); assay: Inhibition of PRK2 at 50 uM
[8] = molecular target: Ribosomal protein S6 kinase beta-1 (Homo sapiens) (UniProt P23443); assay: Inhibition of S6K1 at 50 uM
[9] = Inhibition of PKA at 50 uM
[10] = molecular target: 3-phosphoinositide-dependent protein kinase 1 (Homo sapiens) (UniProt O15530); assay: Activation of PDK1 at 50 uM
Chain of 3-phosphoinositide-dependent protein kinase 1 (Homo sapiens) (O15530 whole entry, looked up): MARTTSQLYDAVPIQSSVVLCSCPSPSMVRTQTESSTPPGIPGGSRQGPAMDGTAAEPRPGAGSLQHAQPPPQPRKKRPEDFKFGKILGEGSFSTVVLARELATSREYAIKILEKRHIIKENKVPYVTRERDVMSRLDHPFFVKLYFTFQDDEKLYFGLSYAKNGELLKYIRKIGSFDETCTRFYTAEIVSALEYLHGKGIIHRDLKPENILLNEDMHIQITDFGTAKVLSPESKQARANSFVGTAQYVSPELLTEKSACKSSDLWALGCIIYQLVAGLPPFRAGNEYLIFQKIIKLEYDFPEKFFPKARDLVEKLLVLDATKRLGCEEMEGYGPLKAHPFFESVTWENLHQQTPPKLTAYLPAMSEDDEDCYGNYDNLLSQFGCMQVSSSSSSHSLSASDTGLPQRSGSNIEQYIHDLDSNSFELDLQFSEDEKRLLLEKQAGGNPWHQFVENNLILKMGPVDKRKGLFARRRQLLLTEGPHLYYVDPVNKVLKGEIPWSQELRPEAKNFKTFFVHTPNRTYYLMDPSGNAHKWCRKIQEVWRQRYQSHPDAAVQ

Chain of Ribosomal protein S6 kinase beta-1 (Homo sapiens) (P23443 whole entry, looked up): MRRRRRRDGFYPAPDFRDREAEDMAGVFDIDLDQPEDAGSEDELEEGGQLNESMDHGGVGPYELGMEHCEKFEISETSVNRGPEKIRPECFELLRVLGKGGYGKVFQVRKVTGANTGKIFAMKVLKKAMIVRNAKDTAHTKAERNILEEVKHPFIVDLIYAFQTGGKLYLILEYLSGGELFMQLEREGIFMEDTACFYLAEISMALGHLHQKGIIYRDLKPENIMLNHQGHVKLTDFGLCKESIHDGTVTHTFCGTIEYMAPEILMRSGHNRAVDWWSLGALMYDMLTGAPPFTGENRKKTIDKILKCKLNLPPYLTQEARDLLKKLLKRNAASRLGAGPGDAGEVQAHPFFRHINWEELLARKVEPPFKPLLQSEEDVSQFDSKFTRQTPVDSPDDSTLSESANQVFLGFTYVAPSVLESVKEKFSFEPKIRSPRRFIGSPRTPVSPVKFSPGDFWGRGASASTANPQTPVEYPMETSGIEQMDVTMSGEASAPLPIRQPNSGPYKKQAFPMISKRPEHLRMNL
Chain of RAC-alpha serine/threonine-protein kinase (Homo sapiens) (P31749 whole entry): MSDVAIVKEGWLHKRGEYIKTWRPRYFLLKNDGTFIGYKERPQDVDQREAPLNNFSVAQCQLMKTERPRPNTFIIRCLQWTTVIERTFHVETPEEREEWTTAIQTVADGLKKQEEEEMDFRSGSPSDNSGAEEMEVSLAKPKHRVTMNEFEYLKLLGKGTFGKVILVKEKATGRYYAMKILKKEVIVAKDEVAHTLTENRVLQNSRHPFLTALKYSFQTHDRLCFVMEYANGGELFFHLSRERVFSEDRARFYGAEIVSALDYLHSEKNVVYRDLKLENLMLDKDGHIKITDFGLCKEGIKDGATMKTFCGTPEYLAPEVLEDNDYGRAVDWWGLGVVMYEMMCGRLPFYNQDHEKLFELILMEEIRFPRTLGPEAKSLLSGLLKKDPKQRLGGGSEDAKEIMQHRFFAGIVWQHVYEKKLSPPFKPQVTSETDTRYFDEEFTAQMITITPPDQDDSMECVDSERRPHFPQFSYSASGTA
Chain of Serine/threonine-protein kinase N2 (Homo sapiens) (Q16513 whole entry, looked up): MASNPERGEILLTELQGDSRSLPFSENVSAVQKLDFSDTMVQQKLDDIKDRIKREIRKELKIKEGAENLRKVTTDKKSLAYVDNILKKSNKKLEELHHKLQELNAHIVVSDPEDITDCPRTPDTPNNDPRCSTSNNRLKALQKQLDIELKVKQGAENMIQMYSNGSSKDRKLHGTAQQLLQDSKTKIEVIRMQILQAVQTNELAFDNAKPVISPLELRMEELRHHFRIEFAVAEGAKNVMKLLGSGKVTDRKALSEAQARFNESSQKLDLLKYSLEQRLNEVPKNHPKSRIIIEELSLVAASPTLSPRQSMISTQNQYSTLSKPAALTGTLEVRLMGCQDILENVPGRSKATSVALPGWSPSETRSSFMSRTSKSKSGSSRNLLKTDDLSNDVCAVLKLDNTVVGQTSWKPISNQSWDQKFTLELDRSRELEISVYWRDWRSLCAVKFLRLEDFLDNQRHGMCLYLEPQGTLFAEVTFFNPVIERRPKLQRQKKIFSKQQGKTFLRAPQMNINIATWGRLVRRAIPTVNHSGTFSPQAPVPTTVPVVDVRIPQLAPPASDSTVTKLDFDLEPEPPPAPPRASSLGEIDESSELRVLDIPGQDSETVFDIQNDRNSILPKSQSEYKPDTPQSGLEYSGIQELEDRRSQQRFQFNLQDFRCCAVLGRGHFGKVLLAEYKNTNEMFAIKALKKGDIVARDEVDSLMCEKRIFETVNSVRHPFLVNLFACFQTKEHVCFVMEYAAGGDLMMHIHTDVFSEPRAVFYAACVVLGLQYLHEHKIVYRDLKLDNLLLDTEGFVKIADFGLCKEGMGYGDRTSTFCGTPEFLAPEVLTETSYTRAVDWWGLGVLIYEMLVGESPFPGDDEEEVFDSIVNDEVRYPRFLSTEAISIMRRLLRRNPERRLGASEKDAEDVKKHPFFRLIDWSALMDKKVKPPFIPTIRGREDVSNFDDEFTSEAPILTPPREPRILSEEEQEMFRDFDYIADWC

inhibition [4]: Active
inhibition [5]: inactive
inhibition [6]: inactive
inhibition [7]: Active
inhibition [8]: 60%
inhibition [9]: Active
inhibition [3]: Active
Compound: CCCc1ccc(C(CC(=O)O)Cc2nc3cc(I)ccc3[nH]2)cc1 (racemic)

inhibition [8]: 60%
Compound: O=C(O)CC(Cc1nc2cc(-c3ccccc3)ccc2[nH]1)c1ccc(Cl)cc1 (racemic)

More lines, now with the values behind:

Compound: CC(C)(C)c1ccc(C(CC(=O)O)Cc2nc3ccc(I)cc3[nH]2)cc1 (racemic)
IC50 [1]: 13 µM
IC50 [2]: 23 µM

Compound: CC(C)(C)c1ccc(C(CC(=O)O)Cc2nc3cc(I)ccc3[nH]2)cc1 (racemic)
inhibition [3]: 30%

Compound: O=C(O)CC(Cc1nc2cc(Cl)c(F)cc2[nH]1)c1ccc(Cl)cc1 (racemic)
fold change (FC) [10]: 3

Compound: O=C(O)CC(Cc1nc2cc(Cl)ccc2[nH]1)c1ccc(Cl)cc1Cl (racemic)
fold change (FC) [10]: 3
